The text below walks through data of patent US20260297060A1, “COMPOUNDS FOR THE DEGRADATION OF MUTANT BRAF” (C4 THERAPEUTICS, INC., priority 2023, published 2026).

SMILES strings stand for the structures. Read-outs that look alike come from different tables or passages of the source.

This assay addresses T1, BRAF V600E (Homo sapiens, UniProt P15056+Q96SW2, V600E).
T1 construct: knock-in of the HiBiT tag to the endogenous BRAF V600E locus; host or cells: A375.10 (A375 clonal line, CRISPR HiBiT knock-in at the endogenous BRAF V600E locus)
Put plainly: BRAF V600E HiBiT Degradation Assay. Format: cell-based. The method in brief: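 Endogenous HiBiT knock-in on BRAF V600E in A375 cells (clone A375.10); 11-point half-log series, top 10 μM, 2, 6 or 24 h at 37° C. Lytic HiBiT luminescence, background-subtracted, normalized to DMSO; 4-parameter fit gives DC50, Emax (residual protein) and IP (inflection point).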

Where [1] appears, read: A375.10 cells, BRAF V600E, 2 hours, inflection point, read-out: HiBiT-Degradation A375.10 BRAF 2 hours IP.
The mark [2] stands for this setting: A375.10 cells, BRAF V600E, 2 hours, read-out: HiBiT-Degradation A375.10 BRAF 2 hours DC50.
Setting [3] is: A375.10 cells, BRAF V600E, 2 hours, residual protein remaining, read-out: HiBiT-Degradation A375.10 BRAF 2 hours Emax.
Setting [4] is: A375.10 cells, BRAF V600E, 6 hours, inflection point, read-out: HiBiT-Degradation A375.10 BRAF 6 hours IP.
[5] abbreviates: A375.10 cells, BRAF V600E, 6 hours, read-out: HiBiT-Degradation A375.10 BRAF 6 hours DC50.
The mark [6] stands for this setting: A375.10 cells, BRAF V600E, 6 hours, residual protein remaining, read-out: HiBiT-Degradation A375.10 BRAF 6 hours Emax.
Where [7] appears, read: A375.10 cells, HiBiT, BRAF V600E, 24 hours, read-out: HiBiT-Degradation A375.10 BRAF 24 hours DC50.
Setting [8] is: A375.10 cells, HiBiT, BRAF V600E, 24 hours, read-out: HiBiT-Degradation A375.10 BRAF 24 hours Emax.
[9] abbreviates: A375.10 cells, HiBiT, BRAF V600E, 24 hours, read-out: HiBiT-Degradation A375.10 BRAF 24 hours IP.
The mark [10] stands for this setting: read-out: HiBiT-Degradation A375.10 BRAF 2 hours Emax, A375.10 cells, BRAF V600E, 2 hours, residual protein remaining.

T1 sequence (P15056 whole entry V600E): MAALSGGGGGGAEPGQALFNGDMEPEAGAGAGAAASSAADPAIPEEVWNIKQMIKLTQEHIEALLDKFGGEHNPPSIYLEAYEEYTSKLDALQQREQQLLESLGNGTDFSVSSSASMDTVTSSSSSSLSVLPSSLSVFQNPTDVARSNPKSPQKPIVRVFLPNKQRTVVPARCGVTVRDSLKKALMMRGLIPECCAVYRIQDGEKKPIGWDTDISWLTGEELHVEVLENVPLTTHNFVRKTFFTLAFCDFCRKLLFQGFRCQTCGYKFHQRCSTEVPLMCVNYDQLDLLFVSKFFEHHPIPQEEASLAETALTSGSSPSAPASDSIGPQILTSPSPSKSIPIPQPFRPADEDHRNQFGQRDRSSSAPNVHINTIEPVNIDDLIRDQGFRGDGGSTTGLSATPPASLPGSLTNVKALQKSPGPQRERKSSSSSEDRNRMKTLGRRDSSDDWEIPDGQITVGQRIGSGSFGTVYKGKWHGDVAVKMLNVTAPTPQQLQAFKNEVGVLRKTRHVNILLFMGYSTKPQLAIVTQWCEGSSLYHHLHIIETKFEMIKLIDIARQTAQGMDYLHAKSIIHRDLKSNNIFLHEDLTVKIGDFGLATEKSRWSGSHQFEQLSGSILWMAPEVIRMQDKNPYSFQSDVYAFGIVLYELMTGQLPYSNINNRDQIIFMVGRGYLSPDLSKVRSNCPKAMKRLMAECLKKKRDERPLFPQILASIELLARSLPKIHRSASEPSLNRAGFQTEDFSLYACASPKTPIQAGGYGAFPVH
T1 sequence (Q96SW2 whole entry): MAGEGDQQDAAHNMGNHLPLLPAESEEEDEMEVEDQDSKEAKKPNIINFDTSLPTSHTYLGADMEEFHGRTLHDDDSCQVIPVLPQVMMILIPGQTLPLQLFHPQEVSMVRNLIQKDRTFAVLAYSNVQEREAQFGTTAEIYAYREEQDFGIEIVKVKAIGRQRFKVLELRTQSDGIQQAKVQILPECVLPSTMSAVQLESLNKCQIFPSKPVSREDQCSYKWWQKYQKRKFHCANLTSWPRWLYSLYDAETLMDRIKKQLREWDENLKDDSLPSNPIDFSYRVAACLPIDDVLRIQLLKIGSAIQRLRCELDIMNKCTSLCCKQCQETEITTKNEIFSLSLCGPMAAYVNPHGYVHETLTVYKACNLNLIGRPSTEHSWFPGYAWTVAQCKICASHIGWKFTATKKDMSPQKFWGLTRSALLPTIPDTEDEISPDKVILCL
T1 sequence (Q16531 whole entry partner): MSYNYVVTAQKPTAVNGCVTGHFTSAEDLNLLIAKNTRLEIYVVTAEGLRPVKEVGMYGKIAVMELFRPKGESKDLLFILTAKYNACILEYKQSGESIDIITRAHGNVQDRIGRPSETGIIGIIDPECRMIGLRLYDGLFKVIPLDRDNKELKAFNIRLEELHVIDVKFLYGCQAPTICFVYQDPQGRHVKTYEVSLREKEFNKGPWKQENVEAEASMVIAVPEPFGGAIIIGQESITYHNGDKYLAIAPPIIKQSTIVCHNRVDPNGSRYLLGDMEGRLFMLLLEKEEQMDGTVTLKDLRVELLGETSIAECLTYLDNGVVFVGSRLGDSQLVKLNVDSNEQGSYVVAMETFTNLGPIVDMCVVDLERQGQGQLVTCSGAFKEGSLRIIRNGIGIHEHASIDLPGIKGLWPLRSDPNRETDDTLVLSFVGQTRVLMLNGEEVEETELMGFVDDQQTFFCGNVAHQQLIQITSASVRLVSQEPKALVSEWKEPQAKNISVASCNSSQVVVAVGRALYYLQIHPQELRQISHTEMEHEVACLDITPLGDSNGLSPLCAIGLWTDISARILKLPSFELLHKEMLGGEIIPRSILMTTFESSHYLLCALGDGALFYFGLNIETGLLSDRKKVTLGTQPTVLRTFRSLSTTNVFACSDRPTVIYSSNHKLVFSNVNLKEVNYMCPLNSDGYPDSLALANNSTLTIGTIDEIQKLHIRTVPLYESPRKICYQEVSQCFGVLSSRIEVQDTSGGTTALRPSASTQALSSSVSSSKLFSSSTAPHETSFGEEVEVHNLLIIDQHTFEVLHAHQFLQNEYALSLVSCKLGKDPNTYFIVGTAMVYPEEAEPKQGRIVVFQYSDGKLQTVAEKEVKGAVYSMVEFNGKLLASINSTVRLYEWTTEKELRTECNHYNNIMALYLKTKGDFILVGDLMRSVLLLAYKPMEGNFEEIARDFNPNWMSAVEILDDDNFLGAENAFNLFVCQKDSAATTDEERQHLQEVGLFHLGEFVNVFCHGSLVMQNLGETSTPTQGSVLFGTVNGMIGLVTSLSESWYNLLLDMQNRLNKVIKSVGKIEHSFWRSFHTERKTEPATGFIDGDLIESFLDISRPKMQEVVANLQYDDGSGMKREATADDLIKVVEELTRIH

Usually Emax stands for the size of the effect at its maximum, as opposed to the concentration needed. `CO[C@H]1CCN(S(=O)(=O)Nc2ccc(F)c(Oc3ccc4ncn([C@H]5COC6(CCN(C7CCC(c8cc9c(cc8F)c(N8CCC(=O)NC8=O)nn9C)CC7)CC6)C5)c(=O)c4c3)c2C#N)C1` (single isomer, unassigned) [Compound 115]: the DC50 by setting is: under setting [1], under 1000 nM; under setting [2], under 1000 nM; under setting [4], under 1000 nM; under setting [5], under 1000 nM; under setting [7], under 1000 nM; under setting [9], under 1000 nM. Also, the maximum response (Emax) under setting [3] was under 50%, the Emax under setting [6] was under 50% and the maximum response (Emax) under setting [8] was under 50%.

Turning to `CCN(C)S(=O)(=O)Nc1ccc(F)c(Oc2ccc3ncn([C@H]4CCC5(CCN(C6CCC(c7ccc(NC8CCC(=O)NC8=O)cc7F)CC6)CC5)C4)c(=O)c3c2)c1C#N` (single isomer, unassigned) [Compound 24], the DC50 is under 1000 nM under setting [1]; under 1000 nM under setting [2]; under 1000 nM under setting [4]; under 1000 nM under setting [5]; under 1000 nM under setting [7]; under 1000 nM under setting [9]. In addition, the Emax by setting is: under setting [3], under 50%; under setting [6], under 50%; under setting [8], under 50%.

In the case of `CN(CCO)S(=O)(=O)Nc1ccc(F)c(Oc2ccc3ncn([C@H]4COC5(CCN(C6CCC(c7cc8c(cc7F)c(N7CCC(=O)NC7=O)nn8C)CC6)CC5)C4)c(=O)c3c2)c1C#N` (single isomer, unassigned) [Compound 73], the DC50 was under 1000 nM under setting [1]; under 1000 nM under setting [2]; under 1000 nM under setting [4]; under 1000 nM under setting [5]; under 1000 nM under setting [7]; under 1000 nM under setting [9]. Besides, the Emax is under 50% under setting [3], under 50% under setting [6] and under 50% under setting [8].

As for `CCN(C)S(=O)(=O)Nc1ccc(F)c(Oc2ccc3ncc(C4CC5(CCN(C6CC7(C6)CN(c6cc8c(cc6F)c(N6CCC(=O)NC6=O)nn8C)C7)CC5)C4)nc3c2)c1C#N` (stereo not drawn) [Compound 177, 7-[2-cyano-3-[[ethyl(methyl)sulfamoyl]amino]-6-fluoro-phenoxy]-2-[7-[2-[3-(2,4-dioxohexahydropyrimidin-1-yl)-5-fluoro-1-methyl-indazol-6-yl]-2-azaspiro[3.3]heptan-6-yl]-7-azaspiro[3.5]nonan-2-yl]quinoxaline], the DC50 by setting is: under setting [1], under 1000 nM; under setting [2], under 1000 nM; under setting [4], under 1000 nM; under setting [5], under 1000 nM; under setting [7], under 1000 nM; under setting [9], under 1000 nM. In addition, the maximum response (Emax) reads like this: under setting [6], under 50%; under setting [8], under 50%; under setting [10], under 50%.

Consider `CCN(C)S(=O)(=O)Nc1ccc(F)c(Oc2ccc3ncn([C@H]4COC5(CCC(N6CCC(c7cc8c(cc7F)c(N7CCC(=O)NC7=O)nn8C)C(F)(F)C6)CC5)C4)c(=O)c3c2)c1C#N` (single isomer, unassigned) [Compound 38], for which the DC50 is under 1000 nM under setting [1]; under 1000 nM under setting [2]; under 1000 nM under setting [4]; under 1000 nM under setting [5]; under 1000 nM under setting [7]; under 1000 nM under setting [9]. The Emax was under 50% under setting [6], under 50% under setting [8] and under 50% under setting [10].

Regarding `CC(C)S(=O)(=O)Nc1ccc(F)c(Oc2ccc3ncn([C@H]4COC5(CCN(C6CCC(c7cc8c(cc7F)c(N7CCC(=O)NC7=O)nn8C)CC6)CC5)C4)c(=O)c3c2)c1C#N` (single isomer, unassigned) [Compound 87], the DC50 is under 1000 nM under setting [1]; under 1000 nM under setting [2]; under 1000 nM under setting [4]; under 1000 nM under setting [5]; under 1000 nM under setting [7]; under 1000 nM under setting [9]. Further, the Emax runs as follows: under setting [3], under 50%; under setting [6], under 50%; under setting [8], under 50%.

For `CCN(C)S(=O)(=O)Nc1ccc(F)c(Oc2ccc3ncn([C@H]4COC5(CCC(N6CC7(CN(c8cc9c(cc8F)c(N8CCC(=O)NC8=O)nn9C)C7)C6)CC5)C4)c(=O)c3c2)c1C#N` (stereo partly drawn) [Compound 27, 6-[2-cyano-3-[[ethyl(methyl)sulfamoyl]amino]-6-fluoro-phenoxy]-3-[(3R)-8-[6-[3-(2,4-dioxohexahydropyrimidin-1-yl)-5-fluoro-1-methyl-indazol-6-yl]-2,6-diazaspiro[3.3]heptan-2-yl]-1-oxaspiro[4.5]decan-3-yl]-4-oxo-quinazoline], the DC50 is under 1000 nM under setting [1]; under 1000 nM under setting [2]; under 1000 nM under setting [4]; under 1000 nM under setting [5]; under 1000 nM under setting [7]; under 1000 nM under setting [9]. For the same molecule, the Emax was under 50% under setting [3], under 50% under setting [6] and under 50% under setting [8].

On to `CCN(C)S(=O)(=O)Nc1ccc(F)c(Oc2ccc3ncn([C@H]4COC5(CCN(C6CCC(c7ccc(NC8CCC(=O)NC8=O)cc7F)CC6)CC5)C4)c(=O)c3c2)c1F` (single isomer, unassigned) [Compound 78], for which the DC50 runs as follows: under setting [1], under 1000 nM; under setting [2], under 1000 nM; under setting [4], under 1000 nM; under setting [5], under 1000 nM; under setting [7], under 1000 nM; under setting [9], under 1000 nM. For the same molecule, the maximal effect (Emax) is under 50% under setting [3], under 50% under setting [6] and under 50% under setting [8].

As for `CCN(C)S(=O)(=O)Nc1ccc(F)c(Oc2ccc3ncn(C4CC5(CCN(C6CCC(c7cc8c(cc7F)c(N7CCC(=O)NC7=O)nn8C)CC6)CC5)C4)c(=O)c3c2)c1F` (single isomer, unassigned) [Compound 178, 3-[7-[4-[3-(2,4-dioxohexahydropyrimidin-1-yl)-5-fluoro-1-methyl-indazol-6-yl]cyclohexyl]-7-azaspiro[3.5]nonan-2-yl]-6-[3-[[ethyl(methyl)sulfamoyl]amino]-2,6-difluoro-phenoxy]-4-oxo-quinazoline], the DC50 is under 1000 nM under setting [1]; under 1000 nM under setting [2]; under 1000 nM under setting [4]; under 1000 nM under setting [5]; under 1000 nM under setting [7]; under 1000 nM under setting [9]. Also, the Emax reads like this: under setting [3], under 50%; under setting [6], under 50%; under setting [8], under 50%.

Regarding `CO[C@@H]1CCN(S(=O)(=O)Nc2ccc(F)c(Oc3ccc4ncn([C@H]5COC6(CCN(C7CCC(c8cc9c(cc8F)c(N8CCC(=O)NC8=O)nn9C)CC7)CC6)C5)c(=O)c4c3)c2C#N)C1` (single isomer, unassigned) [Compound 100], the DC50 was under 1000 nM under setting [1]; under 1000 nM under setting [2]; under 1000 nM under setting [4]; under 1000 nM under setting [5]; under 1000 nM under setting [7]; under 1000 nM under setting [9]. Further, the Emax was under 50% under setting [3], under 50% under setting [6] and under 50% under setting [8].

Take `CCN(C)S(=O)(=O)Nc1ccc(F)c(Oc2ccc3ncn([C@H]4COC5(CCC(N6CC7(CN(c8ccc(NC9CCC(=O)NC9=O)cc8F)C7)C6)CC5)C4)c(=O)c3c2)c1C#N` (stereo partly drawn) [Compound 30, 6-[2-cyano-3-[[ethyl(methyl)sulfamoyl]amino]-6-fluoro-phenoxy]-3-[(3R)-8-[6-[4-[(2,6-dioxo-3-piperidyl)amino]-2-fluoro-phenyl]-2,6-diazaspiro[3.3]heptan-2-yl]-1-oxaspiro[4.5]decan-3-yl]-4-oxo-quinazoline]: the DC50 under setting [1] is under 1000 nM; the DC50 under setting [2] is under 1000 nM; the DC50 under setting [4] is under 1000 nM; the DC50 under setting [5] is under 1000 nM; the DC50 under setting [7] is under 1000 nM; the DC50 under setting [9] was under 1000 nM. The maximal effect (Emax) under setting [6] was under 50%, the Emax under setting [8] is under 50% and the Emax under setting [10] was under 50%.

Consider `CCN(C)S(=O)(=O)Nc1ccc(F)c(Oc2ccc3ncn(C4CC5(CCN(C6CCC(c7cc8c(cc7F)c(N7CCC(=O)NC7=O)nn8C)CC6F)CC5)C4)c(=O)c3c2)c1C#N` (single isomer, unassigned) [Compound 83, 6-[2-cyano-3-[[ethyl(methyl)sulfamoyl]amino]-6-fluoro-phenoxy]-3-[7-[4-[3-(2,4-dioxohexahydropyrimidin-1-yl)-5-fluoro-1-methyl-indazol-6-yl]-2-fluoro-cyclohexyl]-7-azaspiro[3.5]nonan-2-yl]-4-oxo-quinazoline], for which the DC50 was under 1000 nM under setting [1]; under 1000 nM under setting [2]; under 1000 nM under setting [4]; under 1000 nM under setting [5]; under 1000 nM under setting [7]; under 1000 nM under setting [9]. Further, the Emax is under 50% under setting [6], under 50% under setting [8] and under 50% under setting [10].
